Measurements published in patent US4129643A, “Method for rapid screening of teratogenic agents” (priority 1976, dated 1978).

Columns and labels:
Format in all cases: cell-based
[1] = test system: lens epithelial cells; test: morphology of lens epithelial cells grown in amniotic fluid from injected mice; settings: amniotic fluid from mice injected once s.c. at 12-15 days gestation, harvested 1-2 h after; diluted to 50% with culture medium; two days' culture
Procedure: Mice of numerous genotypes were taken from amongst all the more prolific strains available from the Institute of Animal Genetics Mouse House (Mouse News Letter, 1974). They were mated and the pregnancies dated by vaginal plug. They were injected once, subcutaneously, with a teratogen, between 12-15 days of gestation in order to obtain a large volume of clear amniotic fluid. 1-2 hours after the injection the mice were killed by cervical dislocation, the uteri removed and the amniotic fluid harvested under sterile conditions, passed through a Millex filter and stored at -20°C. Control amniotic fluids were obtained from uninjected mice of a similar range of genotypes and stages of gestation. Mice were injected with double the teratogenic doses used for 6-aminonicotinamide by Pinsky and Fraser (Biol. Neonat., 1,106-112 (1959)) and for sodium acetyl salicylate by Larsson and Erickson (Acta. Paed. Scand., 55, 569-576, )1976)), but the amniotic fluids were diluted to 50% with culture medium for use, thus giving a final concentration similar to that used by these authors. Five batches of pooled amniotic fluid of each kind were prepared in this way and tested in separate culture experiments. […]

[2] = test system: lens epithelial cells; test: protein profile (accumulated protein, stained isoelectric focussing gels) of lens epithelial cells grown in amniotic fluid from injected mice; settings: diluted to 50% with culture medium; for changes in the protein profile (bands of stained gels): Coomassie Blue stained gels, densitometry
Procedure: Similar densitometry is made of the autoradiograph of the gels. Each analysis can be done on a culture grown from a cell suspension of as little as 1-4.5 × 10^5 cells, but can be scaled up or down as required.
Mice of numerous genotypes were taken from amongst all the more prolific strains available from the Institute of Animal Genetics Mouse House (Mouse News Letter, 1974). They were mated and the pregnancies dated by vaginal plug. They were injected once, subcutaneously, with a teratogen, between 12-15 days of gestation in order to obtain a large volume of clear amniotic fluid. 1-2 hours after the injection the mice were killed by cervical dislocation, the uteri removed and the amniotic fluid harvested under sterile conditions, passed through a Millex filter and stored at -20°C. Control amniotic fluids were obtained from uninjected mice of a similar range of genotypes and stages of gestation. Mice were injected with double the teratogenic doses used for 6-aminonicotinamide by Pinsky and Fraser (Biol. Neonat., 1,106-112 (1959)) and for sodium acetyl salicylate by Larsson and Erickson (Acta. Paed. Scand., 55, 569-576, )1976)), but the amniotic fluids were diluted to 50% with culture medium for use, thus giving a final concentration similar to that used by these authors. Five batches of pooled amniotic fluid of each kind were prepared in this way and tested in separate culture experiments.
Cultures of dissociated lens epithelial cells were prepared according to Okada, Eguchi and Takeichi (Dev. Growth Diffn., 13,323-326 (197l)), and plated at 4.5 × 10^5 cells per dish in 3.5 ml Earles MEM (Biocult) containing 6% foetal calf serum (Gibco). The medium was changed at 2 days, and after 4 days, when these cells were in log phase, the medium was replaced by 1 ml of medium and 1 ml of amniotic fluid. After two further days the cells were labelled for 4 to 5 hours with ^14 C mixed amino acids (Amersham) at 20 μCi/ml. The cultures were washed several times in Hanks solution, harvested with a miniature plastic scraper and taken up into a drop of 8M urea containing 10 mM β-mercaptoethanol. The drop was frozen and thawed three times to liberate the cell contents. When required, the living cells were examined with a Gilbert and Siebert inverted phase microscope.
Polyacrylamide gels containing ampholines according to Wrigley (Science Tools, 15, 17-23, (1968)) were modified to contain 6M urea, 10mM β-mercaptoethanol, and an ampholine mixture giving a gradient from pH 3 to 10, flattened in the region of 4.5 to 7.0. Such gels give especially high resolution for crystallins and are now routinely used in my laboratory. 20 μl of cell preparation was added to each gel which was electrofocussed overnight according to Wrigley (loc. cit.). […]

[3] = test system: test cells; test: screening test for teratogenic activity with cells cultured in amniotic fluid; settings: tests on two teratogens in the mouse
Source text: According to my invention I provide a process for screening a compound for teratogenic activity comprising administering the compound being screened to a test animal, removing amniotic fluid from the test animal, using the amniotic fluid removed as part or all of a cell culture medium, and measuring the effect on cell properties of cells grown in the culture medium containing the amniotic fluid from the test animal as compared with the use of amniotic fluid from an otherwise identical control animal that has not had the compound being screened administered to it.
(1) Amniotic fluid is used as cell culture medium or as an additive to a standardised cell culture medium in order to test the substance as processed by the maternal organism. Amniotic fluids either from animals of diverse genotype or of selected genotypes, as required, are pooled. […]
(2) A standardised cell suspension is innoculated into cultures and grown during log phase in the medium containing amniotic fluid from a control or test series as described above. […] Lens epithelium has been used since I have published evidence that quantitative regulation of specific syntheses is of especial importance in this orgen and the assay system described in (3) below detects changes in mitotic rate, cell mass, and growth conditions, cell surface modification and genetically determined pathology. […]

Row | SMILES | cell outline / morphology [1] | other quantitative changes in the protein profile [2] | changes in the protein profile (bands of stained gels) [2] | discrimination of treated cells from control cells [3]
1 | NC(=O)c1ccc(N)nc1 [6-aminonicotinamide] | modified cell outline | some other, less striking quantitative changes were also recorded | one band being missing and one exaggerated | distinguish reliably and specifically between the cells treated by each of these teratogens, and control cells
2 | CC(=O)Oc1ccccc1C(=O)O [sodium acetyl salicylate] | normal in morphology | Other quantitative changes were also observed | lacking in the band which was enhanced by 6-aminonicotinamide treatment | distinguish reliably and specifically between the cells treated by each of these teratogens, and control cells
